# Experimental data taken from patent US5668134A, “Method for preventing or reducing photosensitivity and/or phototoxicity reactions to medications” (priority 1994, dated 1997).
# “And” between values parts separate entries of the source, which are not always exact repeats. Identical values can stand only once. Counter-ions that a name gives are not always drawn. Like-named read-outs stand apart in the source and are kept apart here.
# Legend:
# [1] = Tissue or fluid to plasma ratios and blister fluid distribution after oral administration; assay type: in vivo, human; details: for Kp: oral, read-out: Mean Tissue or Fluid to Plasma Ratio
# Text: The following are mean tissue or fluid to plasma ratios of lomefloxacin following oral administration.
# Equilibrium between the serum and blister fluid is achieved approximately two hours postdose, with a partition coefficient of 1.0 (blister fluid:serum). The concentration vs. time profiles in blister fluid following single dose administration are similar to those obtained at steady-state during a once daily dosing regimen.
# [2] = tested on: Staphylococcus saprophyticus; assay: Activity in vitro and in clinical infections; assay type: cell-based
# Klebsiella pneumoniae = assay: Activity in vitro and in clinical infections; assay type: cell-based
# [3] = tested on: uncomplicated urinary tract infection; assay: Example 4: evening dosing in uncomplicated urinary tract infection; assay type: in vivo, human; details: 200 mg at night for 3 nights
# Method: Patients with uncomplicated urinary tract infection were randomized to receive lomefloxacin HCl 200 mg taken at night for 3 nights and trimethoprim in a double-blind study.
# [4] = Example 5: lomefloxacin plasma concentrations; details: for concentration at 14 h: Hour 14, mean; for plasma concentration, Hour 86: 72 hours following last active dose
# [5] = tested on: skin of healthy volunteers; assay: Example 5: severity of radiation-induced photoreactions (edema or blisters); details: UVA & UVB, a.m., 0 h post-radiation
# Method: The number of skin patches with edema, or local swelling of the skin surface, were also counted. MEDs were measured separately for UVA and UVB radiation, and for UVA radiation alone. The baseline MED was defined in the manner described hereinabove. The 24 hour evaluation was allowed to be performed in the morning of Study Day 1. Severity of reactions causing edema and/or blisters were graded under the following grading system:
# Severity was assessed by comparing the numbers of subjects with responses graded as 2 (edema) or 3 (blisters).
# [6] = human, plasma, mean, a.m. dosing
# [7] = human, plasma, mean, p.m. dosing
smiles,measurement,setting,value
"CCn1cc(C(=O)O)c(=O)c2cc(F)c(N3CCNC(C)C3)c(F)c21 (racemic) [lomefloxacin HCl, monohydrochloride salt of (±)-1-ethyl-6,8-difluoro-1,4-dihydro-7-(3-methyl-1-piperazinyl)-4-oxo-3-quinolinecarboxylic acid]",Kp,[1]; Blister Fluid,1
same,Kp,[1]; Bronchial mucosa,2.1
same,Kp,[1]; Bronchial secretions,0.6
same,Kp,[1]; Prostatic tissue,2
same,Kp,[1]; Sputum,1.3
same,Kp,[1]; Urine,140
same,terminal half-life in blister fluid versus serum,[1]; inflammatory exudate fluid of blisters,same terminal half-life
same,time to equilibrium between serum and blister fluid,[1]; postdose,approximately two
same,activity against most strains,[2],active against most strains
same,activity against most strains,Klebsiella pneumoniae,active against most strains
same,overall incidence of adverse events,[3],18%
same,photosensitivity reactions,[3],no photosensitivity reactions reported
same,clinical success in evaluable patients,[3]; 7-9 days posttreatment,98.1%
same,AUC,[4]; [6],47000 ng·h/mL
same,AUC,[4]; [7],40000 ng·h/mL
same,Cmax,[4]; [6],3000 ng/mL
same,Cmax,[4]; [7],2900 ng/mL
same,Tmax,"[4]; human, plasma, Tmax, mean, a.m. dosing, sample hour scale",14.9 h
same,Tmax,"[4]; human, plasma, Tmax, mean, p.m. dosing",2.9 h
same,concentration at 2 h,"[4]; human, plasma, plasma concentration, Hour 2, mean, mean, a.m. dosing, 12 hours prior to last active dose",1100 ng/mL
same,concentration at 2 h,"[4]; human, plasma, plasma concentration, Hour 2, mean, mean, p.m. dosing, 2 hours following last active dose",2900 ng/mL
same,concentration at 14 h,"[4]; human, plasma, plasma concentration, mean, a.m. dosing, immediately prior to last active dose",300 ng/mL
same,concentration at 14 h,"[4]; human, plasma, plasma concentration, mean, p.m. dosing, 14 hours following last active dose",1000 ng/mL
same,concentration at 2 h,"[4]; human, plasma, plasma concentration, Hour 16, individual subjects, a.m. dosing, 2 hours following last active dose",2920 ng/mL
same,concentration at 2 h,"[4]; human, plasma, plasma concentration, Hour 16, mean, mean, a.m. dosing, 2 hours following last active dose",3100 ng/mL
same,concentration at 16 h,"[4]; human, plasma, plasma concentration, Hour 16, mean, mean, p.m. dosing, 16 hours following last active dose",800 ng/mL
same,concentration at 5 h,"[4]; human, plasma, plasma concentration, Hour 19, individual subjects, a.m. dosing, 5 hours following last active dose",1850 ng/mL
same,concentration at 5 h,"[4]; human, plasma, plasma concentration, Hour 19, mean, mean, a.m. dosing, 5 hours following last active dose",2200 ng/mL
same,concentration at 19 h,"[4]; human, plasma, plasma concentration, Hour 19, mean, mean, p.m. dosing, 19 hours following last active dose",600 ng/mL
same,concentration at 24 h,"[4]; human, plasma, plasma concentration, Hour 38, mean, mean, a.m. dosing, 24 hours following last active dose",300 ng/mL
same,concentration at 38 h,"[4]; human, plasma, plasma concentration, Hour 38, mean, mean, p.m. dosing, 38 hours following last active dose",100 ng/mL
same,"plasma concentration, Hour 16","[4]; individual subjects, a.m. dosing, 2 hours following last active dose, 120 min",2420 ng/mL and 3160 ng/mL and 3730 ng/mL and 3000 ng/mL and 3660 ng/mL and 2650 ng/mL and 2840 ng/mL and 2950 ng/mL and 3050 ng/mL and 2940 ng/mL and 4040 ng/mL and 2580 ng/mL
same,"plasma concentration, Hour 19","[4]; individual subjects, a.m. dosing, 5 hours following last active dose, 300 min",1710 ng/mL and 1810 ng/mL and 2370 ng/mL and 2360 ng/mL and 2280 ng/mL and 1780 ng/mL and 2060 ng/mL and 1750 ng/mL and 1720 ng/mL and 2880 ng/mL and 3060 ng/mL and 2390 ng/mL
same,"plasma concentration, Hour 2","[4]; individual subjects, a.m. dosing, 12 hours prior to last active dose, 120 min",786 ng/mL and 1030 ng/mL and 889 ng/mL and 1460 ng/mL and 1360 ng/mL and 711 ng/mL and 1090 ng/mL and 840 ng/mL and 915 ng/mL and 1200 ng/mL and 1280 ng/mL and 1110 ng/mL and 1500 ng/mL
same,"plasma concentration, Hour 0","[4]; individual subjects, a.m. dosing, 14 hours prior to last active dose",1160 ng/mL and 1060 ng/mL and 1540 ng/mL and 1520 ng/mL and 1350 ng/mL and 901 ng/mL and 1370 ng/mL and 1080 ng/mL and 1180 ng/mL and 1720 ng/mL and 1360 ng/mL and 1800 ng/mL
same,"plasma concentration, Hour 38","[4]; individual subjects, a.m. dosing, 24 hours following last active dose, 1440 min",230 ng/mL and 318 ng/mL and 281 ng/mL and 346 ng/mL and 467 ng/mL and 319 ng/mL and 251 ng/mL and 361 ng/mL and 201 ng/mL and 157 ng/mL and 258 ng/mL and 263 ng/mL and 367 ng/mL
same,"plasma concentration, Hour 62","[4]; individual subjects, a.m. dosing, 48 hours following last active dose, 2880 min",39 ng/mL and 64 ng/mL and 27 ng/mL and 54 ng/mL and 73 ng/mL and 35 ng/mL and 53 ng/mL and 21 ng/mL and 16 ng/mL and 36 ng/mL
same,"plasma concentration, Hour 86","[4]; individual subjects, a.m. dosing",0 ng/mL
same,"plasma concentration, Hour 86","[4]; individual subjects, a.m. dosing, 4320 min",11 ng/mL and 16 ng/mL and 6 ng/mL and 13 ng/mL and 19 ng/mL and 7 ng/mL and 9 ng/mL and 17 ng/mL
same,"plasma concentration, Hour 14","[4]; individual subjects, a.m. dosing, immediately prior to last active dose, 840 min",271 ng/mL and 368 ng/mL and 243 ng/mL and 385 ng/mL and 479 ng/mL and 297 ng/mL and 210 ng/mL and 350 ng/mL and 204 ng/mL and 279 ng/mL and 317 ng/mL and 283 ng/mL and 419 ng/mL
same,Tmax,"[4]; individual subjects, a.m. dosing, sample hour scale",16 h and 0 h
same,Tmax,"[4]; individual subjects, p.m. dosing",14 h
same,"plasma concentration, Hour 0, mean","[4]; mean, a.m. dosing, 14 hours prior to last active dose",1300 ng/mL
same,"NUMBER OF SUBJECTS WITH SCORE >= 2, COUNT",[5],0 subjects
same,"SUBJECTS WITH SCORE >= 2, PERCENT",[5],0.00%
